Results: patent US20200239398A1, “METHYLENE-CYCLOALKYLACETATE DERIVATIVES AND THEIR USE IN TREATMENT OF NEUROTROPIC CONDITIONS” (Yissum Research Development Company of The Hebrew …, priority 2018, published 2020)
Like-named read-outs stand apart in the source and are kept apart here.

Assays:
[1] = biological target: Cannabinoid Receptor 2 (CNR2) (Homo sapiens, UniProt P34972); experiment: SAFETYscan CNR2 cAMP; type: cell-based; details: 10 μM HU-MCA-13; for Emax: read-out: Maximal Response
[2] = biological target: Adenosine Receptor A2A (ADORA2A) (Homo sapiens, UniProt P29274); experiment: SAFETYscan ADORA2A Calcium Flux; type: cell-based; details: 10 μM HU-MCA-13, read-out: Maximal Response
Adenosine Receptor A2A (ADORA2A), sequence (P29274 whole entry): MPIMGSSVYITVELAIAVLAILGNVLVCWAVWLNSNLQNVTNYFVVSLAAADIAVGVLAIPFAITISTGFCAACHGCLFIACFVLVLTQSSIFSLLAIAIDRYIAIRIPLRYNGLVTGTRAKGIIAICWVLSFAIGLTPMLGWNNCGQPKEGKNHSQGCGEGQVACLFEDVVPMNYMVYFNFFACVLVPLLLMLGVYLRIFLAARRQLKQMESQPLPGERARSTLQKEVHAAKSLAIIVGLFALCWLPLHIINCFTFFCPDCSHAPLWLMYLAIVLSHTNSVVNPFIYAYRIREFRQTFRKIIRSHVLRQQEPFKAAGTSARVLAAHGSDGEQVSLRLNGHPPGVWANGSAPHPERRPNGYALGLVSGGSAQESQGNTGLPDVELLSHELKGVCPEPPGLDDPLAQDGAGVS

male C57BL/6 mice = experiment: Blood analysis 24 hours after injection; type: in vivo
Procedure: Tail vein blood samples were taken from DMSO 1% treated control (n=3) and HU-MCA-13-injected mice (n=4) after 24 hours from injection and submitted for hematocrit cell counting and biochemical analysis. Blood analyses are depicted in FIG. 4. No difference in any assay (blood count, electrolytes, coagulation parameters) was noted between the DMSO and HU-MCA-13-injected mice. Of special importance are normal liver (ALP, AST, ALT) functions and normal kidney (creatinine and blood urea nitrogen) functions, indicating sufficient organ integrity at the end of the experimental period.

[3] = biological target: Opioid Receptor Kappa 1 (OPRK1) (Homo sapiens, UniProt P41145); experiment: SAFETYscan OPRK1 cAMP; type: cell-based; details: 10 μM HU-MCA-13, read-out: Maximal Response
Opioid Receptor Kappa 1 (OPRK1), sequence (P41145 whole entry): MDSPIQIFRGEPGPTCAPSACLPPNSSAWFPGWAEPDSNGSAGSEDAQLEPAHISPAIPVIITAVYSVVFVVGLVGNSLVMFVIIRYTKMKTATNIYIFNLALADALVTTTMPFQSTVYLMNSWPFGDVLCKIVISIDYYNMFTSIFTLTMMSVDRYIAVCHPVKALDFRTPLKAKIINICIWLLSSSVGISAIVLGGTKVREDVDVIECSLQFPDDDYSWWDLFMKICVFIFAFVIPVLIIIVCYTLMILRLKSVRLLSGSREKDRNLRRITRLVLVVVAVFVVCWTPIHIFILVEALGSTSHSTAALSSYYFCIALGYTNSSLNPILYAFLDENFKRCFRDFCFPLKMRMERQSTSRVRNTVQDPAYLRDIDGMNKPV

[4] = biological target: T1, Rho Associated Coiled-Coil Containing Protein Kinase 1 (serine-threonine kinase) (ROCK1) (Homo sapiens, UniProt Q13464); experiment: SAFETYscan ROCK1 kinase Binding; details: Inhibitor mode, 10 μM HU-MCA-13, read-out: Maximal Response
T1 construct: DiscoverX (KINOMEscan)
T1 sequence (Q13464 whole entry): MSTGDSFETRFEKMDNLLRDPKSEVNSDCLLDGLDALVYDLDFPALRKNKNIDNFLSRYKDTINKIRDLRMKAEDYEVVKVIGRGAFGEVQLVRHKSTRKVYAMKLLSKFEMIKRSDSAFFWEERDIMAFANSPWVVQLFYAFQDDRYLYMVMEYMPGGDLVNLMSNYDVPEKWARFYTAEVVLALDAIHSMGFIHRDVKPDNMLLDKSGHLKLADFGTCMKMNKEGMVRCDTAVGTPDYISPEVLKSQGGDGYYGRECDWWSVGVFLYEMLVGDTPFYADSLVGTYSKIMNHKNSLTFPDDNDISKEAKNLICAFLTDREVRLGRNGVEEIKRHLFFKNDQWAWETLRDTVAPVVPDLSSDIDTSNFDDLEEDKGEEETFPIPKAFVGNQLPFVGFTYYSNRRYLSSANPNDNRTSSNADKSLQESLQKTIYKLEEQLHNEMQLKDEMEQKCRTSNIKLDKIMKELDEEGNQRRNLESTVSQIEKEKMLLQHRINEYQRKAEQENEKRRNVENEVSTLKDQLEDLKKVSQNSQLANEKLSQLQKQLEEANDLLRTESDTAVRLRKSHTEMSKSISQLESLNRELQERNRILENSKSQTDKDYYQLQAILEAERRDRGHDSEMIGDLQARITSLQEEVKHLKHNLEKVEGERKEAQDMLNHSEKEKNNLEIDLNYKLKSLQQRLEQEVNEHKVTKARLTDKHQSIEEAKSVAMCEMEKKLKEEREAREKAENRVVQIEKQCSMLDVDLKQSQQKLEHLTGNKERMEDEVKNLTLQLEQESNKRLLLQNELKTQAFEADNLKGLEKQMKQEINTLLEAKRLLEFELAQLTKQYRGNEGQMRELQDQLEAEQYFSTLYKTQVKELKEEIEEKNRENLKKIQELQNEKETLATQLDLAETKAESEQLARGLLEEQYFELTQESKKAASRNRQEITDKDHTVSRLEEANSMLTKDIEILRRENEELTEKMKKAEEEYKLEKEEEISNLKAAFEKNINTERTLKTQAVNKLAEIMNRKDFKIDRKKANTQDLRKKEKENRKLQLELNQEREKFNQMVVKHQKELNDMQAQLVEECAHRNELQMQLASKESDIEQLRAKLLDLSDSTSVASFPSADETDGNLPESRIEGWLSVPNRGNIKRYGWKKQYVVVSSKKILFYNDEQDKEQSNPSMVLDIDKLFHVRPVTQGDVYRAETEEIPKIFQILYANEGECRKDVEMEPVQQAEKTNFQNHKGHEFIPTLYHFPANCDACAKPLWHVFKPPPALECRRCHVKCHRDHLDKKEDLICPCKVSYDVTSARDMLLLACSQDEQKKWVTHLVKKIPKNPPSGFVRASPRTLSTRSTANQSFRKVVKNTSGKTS

[5] = biological target: T2, Adrenergic Receptor α2A (ADRA2A) (Homo sapiens, UniProt P08913); experiment: SAFETYscan ADRA2A cAMP; type: cell-based; details: 10 μM HU-MCA-13
T2 sequence (P08913 1-465): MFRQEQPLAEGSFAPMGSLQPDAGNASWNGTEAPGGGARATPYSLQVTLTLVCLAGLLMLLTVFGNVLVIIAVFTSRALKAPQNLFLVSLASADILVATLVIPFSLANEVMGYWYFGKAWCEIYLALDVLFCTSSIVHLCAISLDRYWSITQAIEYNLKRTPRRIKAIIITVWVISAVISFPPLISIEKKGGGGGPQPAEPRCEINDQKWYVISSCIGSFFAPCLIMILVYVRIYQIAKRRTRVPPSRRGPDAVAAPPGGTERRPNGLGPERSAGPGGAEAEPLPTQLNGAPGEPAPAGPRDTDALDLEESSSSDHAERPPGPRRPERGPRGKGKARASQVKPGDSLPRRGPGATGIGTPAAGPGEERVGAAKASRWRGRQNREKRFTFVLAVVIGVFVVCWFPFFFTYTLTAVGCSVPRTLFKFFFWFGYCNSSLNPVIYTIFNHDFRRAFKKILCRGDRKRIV

[6] = biological target: T3, Norepinephrine transporter (NET) (Homo sapiens, UniProt P23975); experiment: SAFETYscan NET Transporter; type: cell-based; details: Blocker mode; 10 μM HU-MCA-13; read-out: Maximal Response
T3 construct: DiscoverX (SAFETYscan contract panel)
T3 sequence (P23975 whole entry): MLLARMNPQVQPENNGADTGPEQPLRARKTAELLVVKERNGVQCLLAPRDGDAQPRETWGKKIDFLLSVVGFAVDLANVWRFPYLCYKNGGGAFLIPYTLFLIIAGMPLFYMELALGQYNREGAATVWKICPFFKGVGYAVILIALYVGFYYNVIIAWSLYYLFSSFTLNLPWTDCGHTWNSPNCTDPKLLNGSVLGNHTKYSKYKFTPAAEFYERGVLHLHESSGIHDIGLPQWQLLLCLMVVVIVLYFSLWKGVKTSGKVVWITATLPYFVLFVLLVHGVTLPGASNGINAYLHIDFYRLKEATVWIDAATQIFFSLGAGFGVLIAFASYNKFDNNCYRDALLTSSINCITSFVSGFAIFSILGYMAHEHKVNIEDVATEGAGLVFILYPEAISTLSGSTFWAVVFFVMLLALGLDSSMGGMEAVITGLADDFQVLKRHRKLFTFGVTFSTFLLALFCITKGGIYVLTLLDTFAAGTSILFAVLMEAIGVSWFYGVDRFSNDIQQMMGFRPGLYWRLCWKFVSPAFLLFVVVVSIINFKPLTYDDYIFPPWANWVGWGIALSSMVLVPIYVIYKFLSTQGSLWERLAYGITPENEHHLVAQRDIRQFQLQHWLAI

Cannabinoid Receptor 2 (CNR2), sequence (P34972 whole entry): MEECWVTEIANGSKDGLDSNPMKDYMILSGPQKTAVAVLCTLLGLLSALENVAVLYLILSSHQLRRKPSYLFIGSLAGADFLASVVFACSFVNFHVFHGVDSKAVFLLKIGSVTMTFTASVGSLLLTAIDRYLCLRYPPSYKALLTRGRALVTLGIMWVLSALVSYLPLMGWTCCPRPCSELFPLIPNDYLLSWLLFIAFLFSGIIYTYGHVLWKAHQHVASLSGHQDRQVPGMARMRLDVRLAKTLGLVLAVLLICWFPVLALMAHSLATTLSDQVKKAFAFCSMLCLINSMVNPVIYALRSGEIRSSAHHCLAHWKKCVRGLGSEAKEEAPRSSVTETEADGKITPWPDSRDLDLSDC

C=CCC1CCC[C@@H](CCC(=O)O)C1=C (stereo partly shown) [Compound 13]
Maximal Response ([1]; Agonist mode): 49.59%
Emax ([1]; Agonist mode): 49.6%
Emax ([1]; Antagonist mode): 4.11%
Emax ([2]; Agonist mode): 0%
Emax ([2]; Antagonist mode): 4.09%
kidney (creatinine and blood urea nitrogen) functions (male C57BL/6 mice; 24 hours after 250 mg/kg iv): normal
liver (ALP, AST, ALT) functions (male C57BL/6 mice; 24 hours after 250 mg/kg iv): normal
bilirubin concentration (male C57BL/6 mice; in both control and HU-MCA-13-injected mice): some fluctuation
blood count, electrolytes, coagulation parameters (male C57BL/6 mice; vs DMSO 1% control, 24 hours after 250 mg/kg iv): No difference
Emax ([3]; Agonist mode): 7.89%
Emax ([3]; Antagonist mode): 0%
Emax [4]: 21.6%
Maximal Response ([5]; Agonist mode): 24.55%
Emax ([5]; Antagonist mode, read-out: Maximal Response): 0%
Emax ([5]; read-out: Maximal Response, Agonist mode): 24.5%
Emax [6]: 3.53%
